{"source": "patent US6610683B2", "about": "“Treatment of infectious disease using interleukin-1β-converting enzyme (ICE)/CED-3 family inhibitors” (IDUN Pharmaceuticals, Inc., priority 1996, dated 2003)", "key": {"granulocytes [1]": {"test_system": "granulocytes", "experiment": "Granulocyte survival in culture, hypodiploid nuclei by propidium iodide flow cytometry", "assay_type": "cell-based", "conditions": "at 48 hours; FIG. 6", "description": "Whole blood anticoagulated with Acid Citrate Dextrose (ACD) with a ratio of 1:5 ACD to blood was collected (˜100 ml).\nUsing polypropylene plastic ware, neutrophils are isolated as follows:\n30 ml of the whole blood is added to 50 ml polypropylene centrifuge tubes containing 15 ml of 6% Dextran (in Saline). The blood is allowed to sediment for approximately 1 hour at room temperature.\nThe turbid straw colored layer harvested from the top of the cylinders into 50 ml conical polypropylene tubes. The blood cells were pelleted by centrifugation at 240×g (Sorvall centrifuge at 1200 rpm) for 12 min. at 4° C. with the brake on low. […]\nThe supernatant was aspirated and the neutrophil pellet resuspended in 4.0 ml cold PBS (w/o Ca, Mg) on ice. 10 μl of the neutrophil cell suspension was diluted with 990 μl of Trypan blue (1:100) and cells counted using a hemacytometer. The cell number and viability were determined. […]\nNeutrophils were resuspended in hypotonic fluorochrome solution at a density of 5×10^6 cells/ml. Propidium iodide fluorescence of individual nuclei was evaluated in FL2 and measured on a logarithmic scale while gating on physical parameters in forward and side scatter to exlude cell debris.\nAt least 10,000 events per sample were collected and the results were evaluated relative to a non-apoptotic neutrophil population. […]"}, "granulocytes [2]": {"test_system": "granulocytes", "experiment": "Respiratory burst in isolated neutrophils measured by chemiluminescence (opsonized zymosan)", "assay_type": "cell-based", "conditions": "FIG. 7", "description": "Respiratory burst in isolated neutrophils measured by Chemiluminescence\nWhole blood anticoagulated with Acid Citrate Dextrose (ACD) with a ratio of 1:5 ACD to blood was collected (150 ml).\nNeutrophils were isolated as described above.\nOpsonized zymosan was prepared by suspending 125 mg zymosan particles in 25 ml pooled human serum (5 mg/ml) and incubating them for 20 minutes at 37° C. Centrifuge the suspension and resuspend the particles in 7 ml of PBS (18 mg/ml) and stored on ice until use (vortex prior to pipetting).\n50 ml of a 250 μM solution of Lucigenin (MW 510.5) was prepared by dissolving 6.4 mg of the solid in 50 ml of PBS-G (+Ca, Mg). 10 μl of PBS-G (+Ca, Mg) to the wells in a white 96 well plate.\n50 μl of the 250 μM Lucigenin solution was added to the wells in a white 96 well plate.\nCell preparations were obatined from cell culture (concentration at time zero=5.0×10^6 cells/ml) with PBS-G (+Ca, Mg). 20 μl of the neutrophil suspension was suspended to the appropriate wells and the plate was incubated the plate at 37° C. for three minutes. 10 μl of the opsonized zymosan was added to the wells.\nThe plate was read on the luminometer (Labsystems Luminoskan, Needham Heights, Mass.) for 14 min. at 37° C. in the kinetic mode and record results using the software DeltaSoft.\nThe ability to undergo the respiratory burst is another measure of granulocyte viability. The respiratory burst is a physiological response of granulocytes to foreign stimuli such as bacteria. In this example, the method for inducing the respiratory burst utilized opsonized bacterial zymosan. The respiratory burst was measured via chemiluminescence."}, "motoneurons": {"test_system": "motoneurons", "conditions": "in vitro and in vivo; cited from earlier work"}, "mammary epithelial cells": {"test_system": "mammary epithelial cells", "conditions": "absence of extracellular matrix; cited from earlier work"}, "ICE": {"molecular_target": "T1, ICE (Homo sapiens, UniProt P29466)", "T1 sequence (P29466 120-297 limits assumed)": "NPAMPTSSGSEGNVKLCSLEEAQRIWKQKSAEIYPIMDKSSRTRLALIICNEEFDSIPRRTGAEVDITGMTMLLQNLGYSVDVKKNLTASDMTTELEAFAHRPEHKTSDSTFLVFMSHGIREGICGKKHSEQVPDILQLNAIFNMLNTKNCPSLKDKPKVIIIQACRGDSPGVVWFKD", "T1 sequence (P29466 317-404 limits assumed)": "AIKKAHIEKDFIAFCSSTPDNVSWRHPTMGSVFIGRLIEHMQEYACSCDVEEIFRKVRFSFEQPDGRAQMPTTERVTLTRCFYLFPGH", "conditions": "cited from earlier work"}, "T-lymphocyte cell line": {"test_system": "T-lymphocyte cell line", "conditions": "cited from earlier work"}, "[3]": {"test_system": "granulocytes in whole blood", "experiment": "Whole blood assay: survival of granulocytes by hypodiploid analysis via flow cytometry", "assay_type": "cell-based", "conditions": "time zero", "description": "The following reagents were used:\nanti-CD32-FITC monoclonal antibody obtained from Pharmingen.\n25 Lysing Solution (10×Stock: 89.9 g NH4Cl;\n(DPBS without calcium or magnesium obtained from Irivine Scientific. 2% fetal bovine serum in DPBS stored at 4° C. 50 μg/ml propidium iodide in DPBS sterile filtered and stored at 4° C.)\n200 μl blood sample/2.8 ml 1×lysis solution in a 15 ml polypropylene conical tube.\nCap and invert to mix. Leave at room temperature for 3-5 minutes.\nCentrifuge in a table-top Sorvall at 1200 rpm for 5 minutes at 4° C.\nAspirate supernate. Resuspend pellet in 200 μl/sample 2% FBS/DPBS. Add 20 μl/sample anti-CD32-FITC. Incubate 30 minutes on ice in the dark.\nAdd 5 ml/sample DPBS. Centrifuge at 1000 rpm for 5 minutes at 4° C.\nAspirate supernate. Resuspend pellet in1 ml/sample 2% FBS/DPBS.\nAdd 3 ml/sample ice-cold 95% EtOH dropwise while vortexing gently.\nIncubate samples on ice in the dark for 30 minutes.\nCentrifuge at 1000 rpm for 5 minutes at 4° C.\nResuspend each sample in 50 μl 5 mg/ml RN'ase. Transfer sample to 900 μl/sample […] Propidium Iodide in 12×75 mm Falcon polystyrene tubes.\nIncubate on ice for 30 minutes.\nAnalyze samples by flow cytometry (argon laser) for forward and side scatter and fluorescence.\nSurvival of granulocytes in whole blood was measured by hypodiploid analysis in a similar fashion to isolated granulocytes via flow cytometry. […]"}, "[4]": {"conditions": "after granulocyte culture for 72 hours"}}, "note": "Residues, ends and D or L forms follow the SMILES beside them. *: point of attachment. Cbz = O=C(OCc1ccccc1)*; CH2F = FC*", "data": [{"smiles": "COC(=O)C[C@H](NC(=O)[C@H](C)NC(=O)[C@@H](NC(=O)OCc1ccccc1)C(C)C)C(=O)CF", "note": "[zVADfmk] (Cbz-Val-Ala-Asp(OMe)-CH2F)", "values": [{"measurement": "effect on improving granulocyte survival", "setting": "granulocytes [1]", "value": "weak effect"}, {"measurement": "maintenance of the respiratory burst", "setting": "granulocytes [2]; opsonized zymosan, chemiluminescence", "value": "did not maintain the respiratory burst"}]}, {"smiles": "CC(=O)N[C@@H](Cc1ccc(O)cc1)C(=O)N[C@H](C(=O)N[C@@H](C)C(=O)N[C@H](C=O)CC(=O)O)C(C)C", "note": "[acetyl-YVAD-aldehyde]", "values": [{"measurement": "block of the death of motoneurons", "setting": "motoneurons", "value": "blocked"}]}, {"smiles": "CC(C)(C)OC(=O)N[C@@H](CC(=O)OCc1ccccc1)C(=O)CCl", "note": "[Boc-D-(benzyl) chloromethylketone]", "values": [{"measurement": "prevention of cell death of mammary epithelial cells", "setting": "mammary epithelial cells", "value": "prevented"}]}, {"smiles": "CC(=O)NC(Cc1ccc(O)cc1)C(=O)NC(C(=O)NC(C)C(=O)NC(CC(=O)O)C(=O)C=[N+]=[N-])C(C)C", "note": "(stereo not drawn) [AC-Tyr-Val-Ala-Asp-COCHN2]", "values": [{"measurement": "inhibition of the enzyme (ICE)", "setting": "ICE", "value": "potent, competitive, irreversible inhibitor"}]}, {"smiles": "Cc1c(C(=O)N[C@H](C(=O)NC(CC(=O)O)C(=O)CF)C(C)C)n(C)c2ccccc12", "note": "(stereo partly drawn) [Example 43, N-[(1,3-dimethylindole-2-carbonyl)Valinyl]-3-amino-4-Oxo-5-fluoropentanoic Acid]", "values": [{"measurement": "maintenance of the respiratory burst", "setting": "granulocytes [2]; [4]", "value": "partially maintained"}, {"measurement": "maintenance of the respiratory burst", "setting": "granulocytes [2]; for 48 hours", "value": "substantially maintained"}]}, {"smiles": "CC(=O)N[C@@H](Cc1ccc(O)cc1)C(=O)N[C@H](C(=O)N[C@@H](C)C(=O)N[C@@H](CC(=O)O)C(=O)CCl)C(C)C", "note": "[acetyl-YVAD-chloromethylketone]", "values": [{"measurement": "block of the death of motoneurons", "setting": "motoneurons", "value": "blocked"}]}, {"smiles": "CC(=O)N[C@@H](CC(=O)O)C(=O)N[C@@H](CCC(=O)O)C(=O)N[C@H](C(=O)N[C@H](C=O)CC(=O)O)C(C)C", "note": "[acetyl-DEVD-aldehyde]", "values": [{"measurement": "inhibition of anti-Fas induced apoptosis", "setting": "T-lymphocyte cell line", "value": "inhibited"}]}, {"smiles": "Cc1c(C(=O)N[C@H](C(=O)NC(CC(=O)O)C(=O)COC(=O)c2c(Cl)cccc2Cl)C(C)C)n(C)c2ccccc12", "note": "(stereo partly drawn) [Example 70, N-[N-(1,3-dimethyl-indole-2-carbonyl)-valinyl]-3-amino-5-(2,6-dichlorobenzoyl)oxy-4-oxo-pentanoic Acid]", "values": [{"measurement": "maintenance of the respiratory burst", "setting": "granulocytes [2]; [4]", "value": "partially maintained"}, {"measurement": "maintenance of the respiratory burst", "setting": "granulocytes [2]; for 48 hours", "value": "substantially maintained"}, {"measurement": "Percentage of diploid granulocytes in whole blood", "setting": "[3]", "value": 96, "unit": "%"}]}]}
